Source: paper PMC13198257, “An aerosolized dual-action autotaxin inhibitor-PPARγ agonist for the treatment of pulmonary fibrosis” (Cell Reports Medicine, 2026)

System: lung gene expression
Test: RNA sequencing of lung tissue (BLM/EL244 vs BLM)
Format: in vivo, mouse
Protocol: RNA quality was assessed using an Agilent TapeStation 4150 with the High Sensitivity […] ScreenTape (Agilent), according to the manufacturer’s protocols. For library preparation, the QuantSeq 3’mRNA-Seq Library Prep Kit (Lexogen) was used according to manufacturer’s instructions. Briefly, 500 ng of RNA from each sample was used for first-strand synthesis, followed by RNA template removal, and second-strand synthesis initiated by random primers. In-line barcodes were introduced at this step, and this was followed by magnetic bead-based purification. The resulting libraries were amplified for 15 cycles and re-purified, with quantity and quality assessed on a Qubit 4 Fluorometer with the Invitrogen Qubit dsDNA HS Assay and an Agilent Tapestation 4150 with the High Sensitivity D1000 assay kit, respectively. The quantified libraries were pooled equimolarly; 50ng of total library mix was used for Adapter Conversion PCR Amplification using the Universal Library Conversion Kit (App-A), Version: V1.0 (MGI Tech Co., Ltd.), according to the manufacturer’s instructions.
The quantity and quality of the purified adapter conversion PCR (AC-PCR) product were evaluated on a Qubit 4 Fluorometer with the Invitrogen Qubit dsDNA HS Assay and on an Agilent Tapestation 4150 with the High Sensitivity D1000 assay kit, respectively. This was followed by DNA denaturation, Single-Strand Circularisation, Enzymatic Digestion, Enzymatic Digestion Product Cleanup and Quality Control steps on 1 pmol of AC-PCR product, according to the Universal Library Conversion Kit (App-A) User Manual (Version: A3).
Finally, 60 fmol of ssCirDNA were used for DNB preparation and sequencing on a DNBSEQ-G400 platform at the BSRC Alexander Fleming Genomics Facility, using a G400 App-A FCS SE100 High-throughput Sequencing Set (MGI Tech Co., Ltd.), according to the manufacturer’s instructions.
Alignment of the FASTQ files was performed against the mouse genome build mm10 using a custom Bash script.[143] Read counting on the 3′ UTRs and differential expression analysis were conducted using the metaseqR2 bioconductor package.[144] Genes corresponding to the following biotypes were excluded: polymorphic_pseudogene, processed_transcript, pseudogene, IG_V_pseudogene, misc_RNA, IG_C_gene, IG_J_gene, IG_D_gene, IG_LV_gene, TR_V_gene, TR_V_pseudogene, TEC, and processed_pseudogene. Gene counts were normalized with DESEQ[145] through metaseqR2. Genes with more than 10 counts in at least 50% of the samples were kept for further processing. For differential expression analysis, the PANDORA algorithm[146] was used to estimate a meta p-value integrating the results from the DESEQ, DESEQ2,[147] edgeR,[148] limma,[149] NBPSeq,[150] and NOISeq[151] algorithms. All additional parameters were set to default values.
Pathway enrichment analysis was performed for the Gene Ontology Biological process (BP) and Molecular Function (MF) terms through GeneCodis 4.[152] The volcano plots, scatterplots, Venn diagrams, and dot plots were generated using the ggplot2 Bioconductor package.

[1] = lung tissue of BLM-treated mice, BLM/EL244 vs BLM

O=C1NC(=O)C(Cc2ccc(OCCC3CCN(C(=O)OCc4cc(Cl)cc(Cl)c4)CC3)cc2)S1 (stereo not shown) [EL244, 3,5-dichlorobenzyl 4-(2-(4-((2,4-dioxothiazolidin-5-yl)methyl)phenoxy)ethyl)piperidine-1-carboxylate]
Rora log2 nFC BLM/EL244 vs BLM (DEG Rora, nFC: normalised fold change): 0.80 | log2 nFC BLM/EL244 vs BLM (DEG Rrm2): -2.56 | Ryr2 log2 nFC BLM/EL244 vs BLM (DEG Ryr2, nFC: normalised fold change): 2.14 | S1pr4 log2 nFC BLM/EL244 vs BLM (DEG S1pr4, nFC: normalised fold change): 0.94 | S1pr5 log2 nFC BLM/EL244 vs BLM (DEG S1pr5, nFC: normalised fold change): 1.64 | log2 nFC BLM/EL244 vs BLM (DEG S100a4): -1.26 | S100a8 log2 nFC BLM/EL244 vs BLM (DEG S100a8, nFC: normalised fold change): 1.52 | S100a9 log2 nFC BLM/EL244 vs BLM (DEG S100a9, nFC: normalised fold change): 2.11 | log2 nFC BLM/EL244 vs BLM (DEG S100a14): -1.28 | Scn3a log2 nFC BLM/EL244 vs BLM (DEG Scn3a, nFC: normalised fold change): 0.75 | Scube2 log2 nFC BLM/EL244 vs BLM (DEG Scube2, nFC: normalised fold change): 0.74 | Sec14l3 log2 nFC BLM/EL244 vs BLM (DEG Sec14l3, nFC: normalised fold change): 0.69 | Sec14l4 log2 nFC BLM/EL244 vs BLM (DEG Sec14l4, nFC: normalised fold change): 0.77 | Sell log2 nFC BLM/EL244 vs BLM (DEG Sell, nFC: normalised fold change): 1.03 | Sema3g log2 nFC BLM/EL244 vs BLM (DEG Sema3g, nFC: normalised fold change): 0.78 | log2 nFC BLM/EL244 vs BLM (DEG Serpina3g): -1.31 | Sftpa1 log2 nFC BLM/EL244 vs BLM (DEG Sftpa1, nFC: normalised fold change): 0.70 | Sgip1 log2 nFC BLM/EL244 vs BLM (DEG Sgip1, nFC: normalised fold change): 0.90 | Sgms1 log2 nFC BLM/EL244 vs BLM (DEG Sgms1, nFC: normalised fold change): 0.71 | log2 nFC BLM/EL244 vs BLM (DEG Ska1): -2.52 | log2 nFC BLM/EL244 vs BLM (DEG Slamf8): -1.24 | Slc2a4rg-ps log2 nFC BLM/EL244 vs BLM (DEG Slc2a4rg-ps, nFC: normalised fold change): 0.85 | Slc7a10 log2 nFC BLM/EL244 vs BLM (DEG Slc7a10, nFC: normalised fold change): 0.97 | log2 nFC BLM/EL244 vs BLM (DEG Slc7a11): -1.50 | Slc16a11 log2 nFC BLM/EL244 vs BLM (DEG Slc16a11, nFC: normalised fold change): 0.79 | Slc38a4 log2 nFC BLM/EL244 vs BLM (DEG Slc38a4, nFC: normalised fold change): 1.12 | Slc43a3 log2 nFC BLM/EL244 vs BLM (DEG Slc43a3, nFC: normalised fold change): 0.73 | Sln log2 nFC BLM/EL244 vs BLM (DEG Sln, nFC: normalised fold change): 2.01 | Smad6 log2 nFC BLM/EL244 vs BLM (DEG Smad6, nFC: normalised fold change): 1.18 | Smpx log2 nFC BLM/EL244 vs BLM (DEG Smpx, nFC: normalised fold change): 2.34 | Smyd1 log2 nFC BLM/EL244 vs BLM (DEG Smyd1, nFC: normalised fold change): 1.73 | Snhg11 log2 nFC BLM/EL244 vs BLM (DEG Snhg11, nFC: normalised fold change): 1.40 | Sntb1 log2 nFC BLM/EL244 vs BLM (DEG Sntb1, nFC: normalised fold change): 0.72 | Snx21 log2 nFC BLM/EL244 vs BLM (DEG Snx21, nFC: normalised fold change): 1.15 | Sorbs1 log2 nFC BLM/EL244 vs BLM (DEG Sorbs1, nFC: normalised fold change): 0.70 | Sorbs3 log2 nFC BLM/EL244 vs BLM (DEG Sorbs3, nFC: normalised fold change): 0.80 | log2 nFC BLM/EL244 vs BLM (DEG Sox9): -1.42 | log2 nFC BLM/EL244 vs BLM (DEG Spp1): -1.50 | Srcin1 log2 nFC BLM/EL244 vs BLM (DEG Srcin1, nFC: normalised fold change): 0.91 | Syne1 log2 nFC BLM/EL244 vs BLM (DEG Syne1, nFC: normalised fold change): 0.70 | Synm log2 nFC BLM/EL244 vs BLM (DEG Synm, nFC: normalised fold change): 0.84 | log2 nFC BLM/EL244 vs BLM (DEG Tacc3): -1.27 | Tbata log2 nFC BLM/EL244 vs BLM (DEG Tbata, nFC: normalised fold change): 1.72 | Tbkbp1 log2 nFC BLM/EL244 vs BLM (DEG Tbkbp1, nFC: normalised fold change): 0.71 | Tcap log2 nFC BLM/EL244 vs BLM (DEG Tcap, nFC: normalised fold change): 1.73 | log2 nFC BLM/EL244 vs BLM (DEG Tcf19): -1.42 | Tex11 log2 nFC BLM/EL244 vs BLM (DEG Tex11, nFC: normalised fold change): 1.83 | Tgfbr3 log2 nFC BLM/EL244 vs BLM (DEG Tgfbr3, nFC: normalised fold change): 0.83 | Tmem100 log2 nFC BLM/EL244 vs BLM (DEG Tmem100, nFC: normalised fold change): 0.82 | Tmem182 log2 nFC BLM/EL244 vs BLM (DEG Tmem182, nFC: normalised fold change): 2.26 | Tmem132d log2 nFC BLM/EL244 vs BLM (DEG Tmem132d, nFC: normalised fold change): 2.38 | log2 nFC BLM/EL244 vs BLM (DEG Tnip3): -1.47 | Tnnc1 log2 nFC BLM/EL244 vs BLM (DEG Tnnc1, nFC: normalised fold change): 2.18 | Tnni3 log2 nFC BLM/EL244 vs BLM (DEG Tnni3, nFC: normalised fold change): 2.31 | Tnnt2 log2 nFC BLM/EL244 vs BLM (DEG Tnnt2, nFC: normalised fold change): 1.77 | Tns2 log2 nFC BLM/EL244 vs BLM (DEG Tns2, nFC: normalised fold change): 0.77 | Tppp3 log2 nFC BLM/EL244 vs BLM (DEG Tppp3, nFC: normalised fold change): 0.77 | log2 nFC BLM/EL244 vs BLM (DEG Trem2): -1.42 | log2 nFC BLM/EL244 vs BLM (DEG Trip13): -1.42 | Ttn log2 nFC BLM/EL244 vs BLM (DEG Ttn, nFC: normalised fold change): 2.53 | Unc45b log2 nFC BLM/EL244 vs BLM (DEG Unc45b, nFC: normalised fold change): 0.77 | Upk3b log2 nFC BLM/EL244 vs BLM (DEG Upk3b, nFC: normalised fold change): 1.53 | Vpreb3 log2 nFC BLM/EL244 vs BLM (DEG Vpreb3, nFC: normalised fold change): 0.71 | Vwa3b log2 nFC BLM/EL244 vs BLM (DEG Vwa3b, nFC: normalised fold change): 0.98 | log2 nFC BLM/EL244 vs BLM (DEG Wfdc17): -1.30 | Xndc1 log2 nFC BLM/EL244 vs BLM (DEG Xndc1, nFC: normalised fold change): 1.14 | Zmynd10 log2 nFC BLM/EL244 vs BLM (DEG Zmynd10, nFC: normalised fold change): 1.28 | log2 nFC BLM/EL244 vs BLM (DEG Zranb3): -1.43 | log2 nFC BLM/EL244 vs BLM (DEG Zwilch): -1.54 | 1810010H24Rik log2 nFC [1]: 0.90 | 1810010H24Rik nFC [1]: 1.87 | Abca8a log2 nFC [1]: 0.75 | Abca8a nFC [1]: 1.68 | Abi3bp log2 nFC [1]: 1.00 | Abi3bp nFC [1]: 2.00 | Acbd4 log2 nFC [1]: 0.86 | Acbd4 nFC [1]: 1.81 | Adgrf5 log2 nFC [1]: 0.68 | Adgrf5 nFC [1]: 1.60 | Adh7 log2 nFC [1]: 1.02 | Adh7 nFC [1]: 2.02 | Aldh1a1 log2 nFC [1]: 0.78 | Aldh1a1 nFC [1]: 1.71 | Ankrd44 log2 nFC [1]: 0.84 | Ankrd44 nFC [1]: 1.79 | Aox3 log2 nFC [1]: 1.07 | Aox3 nFC [1]: 2.09 | Ar log2 nFC [1]: 1.04 | Ar nFC [1]: 2.06 | Arhgef28 log2 nFC [1]: 0.76 | Arhgef28 nFC [1]: 1.70 | Arhgef38 log2 nFC [1]: 0.87 | Arhgef38 nFC [1]: 1.83 | Arl4a log2 nFC [1]: 0.70 | Arl4a nFC [1]: 1.63 | Atp2a3 log2 nFC [1]: 0.83 | Atp2a3 nFC [1]: 1.77 | Atp6v1c2 log2 nFC [1]: 1.03 | Atp6v1c2 nFC [1]: 2.04 | Atp7b log2 nFC [1]: 0.95 | Atp7b nFC [1]: 1.93 | Bcar3 log2 nFC [1]: 0.82 | Bcar3 nFC [1]: 1.76 | Bmp6 log2 nFC [1]: 1.07 | Bmp6 nFC [1]: 2.10 | Cbr2 log2 nFC [1]: 0.91 | Cbr2 nFC [1]: 1.88 | Ccdc153 log2 nFC [1]: 0.79 | Ccdc153 nFC [1]: 1.73 | Ccdc171 log2 nFC [1]: 1.04 | Ccdc171 nFC [1]: 2.06 | Ccl5 log2 nFC [1]: 0.76 | Ccl5 nFC [1]: 1.69 | Cep85l log2 nFC [1]: 1.02 | Cep85l nFC [1]: 2.03
